# Measurements taken from patent US10538555B2, “Macrocyclic inhibitors of the PD-1/PD-L1 and CD80(B7-1)/PD-L1 protein/protein interactions” (BRISTOL-MYERS SQUIBB COMPANY, priority 2014, dated 2020).
# Where a SMILES comes first, the peptide text is derived from it. Bridges are numbered along the chain shown (N, C = ends). [ ]: non-standard residue; d: D form. Trp(1-CH2COOH) = N[C@@H](Cc1cn(CC(=O)O)c2ccccc12)C(=O)O; Hyp = O=C(O)[C@@H]1C[C@@H](O)CN1; NMeNle = CCCC[C@H](NC)C(=O)O; Pip = O=C(O)[C@@H]1CCCCN1; Dab = NCC[C@H](N)C(=O)O; Dap = NC[C@H](N)C(=O)O
# Molecular target: T1, Human PD-L1/PD-1 (Homo sapiens, UniProt Q9NZQ7)
# T1 construct: TVMV protease cleavage site (C); made in house; host or cells: HEK293T cells
# T1 sequence (Q9NZQ7 with tags, fused parts or gaps): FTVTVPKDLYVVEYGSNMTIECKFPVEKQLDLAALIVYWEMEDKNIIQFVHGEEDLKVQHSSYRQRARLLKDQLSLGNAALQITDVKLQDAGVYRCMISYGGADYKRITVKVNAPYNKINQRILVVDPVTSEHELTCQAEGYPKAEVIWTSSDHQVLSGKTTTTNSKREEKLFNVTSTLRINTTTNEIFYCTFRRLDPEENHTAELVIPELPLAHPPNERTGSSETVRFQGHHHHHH
# Experiment: HTRF Human PD-L1/PD-1 binding assay (PD-1-Ig/PD-L1-His)
# Conditions: PD-L1-His 10 nM, PD-1-Ig 20 nM; class symbol; read-out: HTRF Human PD-L1/PD-1 Binding Assay IC50 Range
# Procedure, shortened: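 Inhibitors were preincubated 15 min with human PD-L1(18-239)-His (10 nM final), then PD-1(25-167)-Ig (20 nM final) was added for 15 min in dPBS/0.1% BSA/0.05% Tween-20. Eu-cryptate anti-Ig (1 nM) and APC anti-His (20 nM) were added; 665/620 nm ratio read after 30 min.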
row,IC50,Compound
1,10 to 99.9 nM,CCCC[C@H]1C(=O)N(C)[C@@H](CCCC)C(=O)N[C@@H](CCN)C(=O)N[C@H](C(=O)NCC(N)=O)CSCC(=O)N[C@@H](Cc2ccc(O)cc2)C(=O)N2CCCC[C@H]2C(=O)N[C@@H](CC(=O)O)C(=O)N2CCC[C@H]2C(=O)N[C@@H](Cc2cnc[nH]2)C(=O)N[C@@H](CCC(=O)O)C(=O)N2C[C@H](O)C[C@H]2C(=O)N[C@@H](Cc2c[nH]c3ccccc23)C(=O)N[C@@H](CO)C(=O)N[C@@H](Cc2cn(CC(=O)O)c3ccccc23)C(=O)N1C [Example 1294] ({CH2CO}-Y[Pip]DPHE[Hyp]WS[Trp(1-CH2COOH)][NMeNle][NMeNle][Dab]CG-NH2; thioether N-14)
2,1 to 9.9 nM,CCCC[C@H]1C(=O)N(C)[C@@H](CCCC)C(=O)N[C@@H](CC(C)C)C(=O)N[C@H](C(=O)NCC(N)=O)CSCC(=O)N[C@@H](Cc2ccc(O)cc2)C(=O)N2CCCC[C@H]2C(=O)N[C@@H](CC(=O)O)C(=O)N2CCC[C@H]2C(=O)N[C@@H](CN)C(=O)N[C@@H](CCC(=O)O)C(=O)N2C[C@H](O)C[C@H]2C(=O)N[C@@H](Cc2c[nH]c3ccccc23)C(=O)N[C@@H](CO)C(=O)N[C@@H](Cc2c[nH]c3ccccc23)C(=O)N1C [Example 1272] ({CH2CO}-Y[Pip]DP[Dap]E[Hyp]WSW[NMeNle][NMeNle]LCG-NH2; thioether N-14)
